Read-outs that look alike come from different tables or passages of the source.
Columns and labels:
[1] = LogBB calculation, Log (Cbrain/Cplasma); type: in vivo, mouse
Protocol: LogBB of apocynin was calculated as described previously ^22 using the equation: LogBB = Log (Cbrain/Cplasma). We used the values from 1 to 30 minutes detected in both plasma and brain tissues for LogBB calculation since apocynin plasma concentration was fallen to ~10 ng/mL (limit of quantification) after 30 minutes of iv injection, n = 3 mice/per time point.

[2] = Apocynin in organs after 16 weeks in drinking water, HFD mouse model (HPLC-MS/MS); type: in vivo; details: male, oral, C57BL/6J mice, HFD 16 weeks, apocynin 5 mmol/L in drinking water
Text: The mouse model of high‐fat diet (HFD‐induced metabolic disorders and accelerated aging was established as described previously. ^8 Littermates of WT and Nox2KO mice (Jackson Laboratory) on a C57BL/6J background at 7 months of age were randomly assigned (n = 6/per group) to a HFD containing 45% kcal fat (Special Diets Services), or to a normal chow diet (NCD) containing 9.3% kcal fat (LabDiet Ltd) for 16 weeks. Apocynin was supplied in drinking water (5 mmol/L) for the treatment group. Body weights were measured weekly. Mice were sacrificed at 11 months of age and organs were harvested for further experiments.
(§1) The detection of apocynin in tissue sample was performed as described previously with some modifications. ^17 In brief, apocynin was detected using an Accela HPLC coupled to a linear ion‐trap tandem mass spectrometry (LTQ‐Orbitrap XL; Thermo‐Fisher Scientific) (HPLC‐MS/MS) in the negative ion mode. Phenacetin (500 ng/mL) was used as an internal standard in every vial. A reversed‐phase 50 × 2.1 mm ID, […], 175 Å pore C18 Hypersil Gold column (Thermo Scientific) was used with injection volume set at 5 µL for the separation of apocynin and phenacetin. Calibration curve used for PK analysis was constructed by spiking apocynin in mouse plasma using eight calibrators ranging from 1 to 10000 ng/mL with great reproducibility and R ^2 ≥ 0.996 for subsequent 5 separate experiments on different days. […] Limit of detection for apocynin was set up at signal to noise ratio ≥ 3, ^18 which is 1 ng/mL in our system. The limitation of quantification was set up at signal to noise ratio ≥ 10, which is 10 ng/mL in our system. Orbitrap component was used for the full scan spectra of apocynin and diapocynin.
The HFD study was performed exactly as described previously. ^8 Littermates of WT and Nox2KO mice on a C57BL/6J background (Jackson Laboratory, USA) were bred in our institution from heterozygotes and genotyped. […] Body weights were measured weekly. […] The body weights were recorded and organs were harvested.

[3] = Body weight in HFD-induced obesity and accelerated aging mouse model; type: in vivo; details: HFD 16 weeks, apocynin 5 mmol/L in drinking water, vs HFD without apocynin
Protocol: Apocynin was supplied in drinking water (5 mmol/L) for the treatment group. Body weights were measured weekly. Mice were sacrificed at 11 months of age and organs were harvested for further experiments. […] Male mice at 7 months of age were randomly assigned (n = 6/per group) to a HFD: 45% kcal fat, 20% kcal protein and 35% kcal carbohydrate (Special Diets Services), or a NCD: 9.3% kcal fat, 25.9% kcal protein, and 64.8% kcal carbohydrate (LabDiet Ltd) for 16 weeks. Apocynin was supplied in drinking water (5 mmol/L). Body weights were measured weekly. Mice (at 11 months) were fasted 8 hours before being sacrificed by an overdose of pentobarbital. The body weights were recorded and organs were harvested.

[4] = Time-dependent distribution of apocynin in plasma, urine and tissues after iv bolus injection (HPLC-MS/MS); type: in vivo, mouse
Protocol: All studies were performed in accordance with the protocols approved by the Home Office under the Animals (Scientific Procedures) Act 1986, UK. For the PKPD study, male CD1 mice (Charles River Ltd) at 12 weeks of age with a body weight range between 25 and 30 g were used for the study. Mice were fasted 12 hours before bolus iv injection of apocynin at 5 mg/kg body weight (dosing volume 5 mL/kg) via a lateral tail vein. Control mice were injected with vehicle (solvent of apocynin) at each time points. Four mice/per time points were sacrificed at 0, 1, 2.5, 5, 15, 30, 60 minutes and then at 3, 6, 12, and 24 hours after iv injection of apocynin. Blood samples were collected and centrifuged at 2000 g, 4°C for 10 minutes for plasma collection. Urine samples were collected from bladders. Tissues were harvested for further experiments.
as §1

[5] = CD1 mice, iv bolus 5 mg/kg, 5 minutes, per tissue weight

- LogBB ([1]; at 1 minute after iv injection): −0.1
- LogBB at 30 min ([1]; male, CD1, mouse, brain/plasma, 5 mg/kg, at 30 minutes after iv injection): 1
- concentration at 16 weeks ([2]; brain, read-out: brain apocynin concentration at end of treatment): 5370 ± 1610 ng/g
- concentration at 16 weeks ([2]; heart, read-out: heart apocynin concentration at end of treatment): 1800 ± 1490 ng/g
- concentration at 16 weeks ([2]; liver, read-out: liver apocynin concentration at end of treatment): 4820 ± 1340 ng/g
- time apocynin remained detectable in urine ([4]; CD1 mice, iv bolus 5 mg/kg): up to 12 hours
- plasma apocynin concentration (peak) ([4]; CD1 mice, iv bolus 5 mg/kg, 1 minute after injection): 5494 ± 400 ng/mL
- brain apocynin concentration (peak) ([4]; CD1 mice, iv bolus 5 mg/kg, 1 minute, per tissue weight): 4603 ± 208 ng/g
- heart apocynin peak concentration [4, 5]: 3161 ± 309 ng/g
- liver apocynin peak concentration [4, 5]: 2853 ± 35 ng/g
- urine apocynin peak concentration ([4]; CD1 mice, iv bolus 5 mg/kg, at 30 minutes): 20492 ng/mL
- apocynin detection in urine ([4]; CD1 mice, iv bolus 5 mg/kg, until 5 minutes after injection): undetectable
- half-life in the brain compared with plasma ([4]; after iv injection): longer
- renal clearance ([4]; after iv injection): high
- concentration at 30 min ([4]; male, mouse, brain, CD1 mice, iv bolus 5 mg/kg, read-out: brain apocynin concentration): 103 ± 4 ng/g
- concentration at 5 min ([4]; male, mouse, plasma, CD1 mice, iv bolus 5 mg/kg, 5 minutes): 3240 ± 1560 ng/mL
- concentration at 15 min ([4]; male, mouse, plasma, CD1 mice, iv bolus 5 mg/kg, 15 minutes): ~50 ng/mL
- concentration at 30 min ([4]; male, mouse, plasma, CD1 mice, iv bolus 5 mg/kg, read-out: plasma apocynin concentration): ~10 ng/mL
- concentration at 3 h ([4]; male, mouse, urine, CD1 mice, iv bolus 5 mg/kg, 3 hours): 230 ± 31 ng/mL
SMILES: COc1cc(C(C)=O)ccc1O [Apocynin, 4‐hydroxy‐3‐methoxyacetophenone]
- effect on HFD-induced increase in body weight [3]: significantly reduced

From article PMC7406636, “In vivo and in silico characterization of apocynin in reducing organ oxidative stress: A pharmacokinetic and pharmacodynamic study” (Pharmacology Research & Perspectives, 2020)
